Assay results published in patent US20090117083A1, “IMMUNOMODULATORY ALKALOIDS” (M N L PHARMA LIMITED, priority 2004, published 2009).
Where two headings read alike, the source gives them in different places.

Key:
Naringinase = assay: Glycosidase inhibition: Naringinase; type: biochemical, Penecillium decumbens; settings: 1 mg/ml
Procedure: (§1) All enzymes were purchased from Sigma, as were the appropriate p-nitrophenyl substrates. Assays were carried out in microtitre plates. Enzymes were assayed in 0.1M citric acid/0.2M di-sodium hydrogen phosphate (McIlvaine) buffers at the optimum pH for the enzyme. All assays were carried out at 20° C. For screening assays the incubation assay consisted of 10 μl of enzyme solution, 10 μl of inhibitor solution (made up in water) and 50 μl of the appropriate 5 mM p-nitrophenyl substrate (3.57 mM final conc.) made up in McIlvaine buffer at the optimum pH for the enzyme.
(§2) The reactions were stopped with 0.4M glycine (pH 10.4) during the exponential phase of the reaction, which was determined at the beginning of the assay using blanks with water, which were incubated for a range of time periods to measure the reaction rate using 5 mM substrate solution. Endpoint absorbances were read at 405 nm with a Biorad microtitre plate reader (Benchmark). Water was substituted for the inhibitors in the blanks.

α-D-glucosidase [1] = target: T1, α-D-glucosidase (Oryza sativa subsp. japonica, UniProt Q653V7); assay: Glycosidase inhibition: α-D-glucosidase, rice; type: biochemical, rice (Oryza sativa); settings: 1 mg/ml
T1 construct: purchased Sigma
T1 sequence (Q653V7 34-885): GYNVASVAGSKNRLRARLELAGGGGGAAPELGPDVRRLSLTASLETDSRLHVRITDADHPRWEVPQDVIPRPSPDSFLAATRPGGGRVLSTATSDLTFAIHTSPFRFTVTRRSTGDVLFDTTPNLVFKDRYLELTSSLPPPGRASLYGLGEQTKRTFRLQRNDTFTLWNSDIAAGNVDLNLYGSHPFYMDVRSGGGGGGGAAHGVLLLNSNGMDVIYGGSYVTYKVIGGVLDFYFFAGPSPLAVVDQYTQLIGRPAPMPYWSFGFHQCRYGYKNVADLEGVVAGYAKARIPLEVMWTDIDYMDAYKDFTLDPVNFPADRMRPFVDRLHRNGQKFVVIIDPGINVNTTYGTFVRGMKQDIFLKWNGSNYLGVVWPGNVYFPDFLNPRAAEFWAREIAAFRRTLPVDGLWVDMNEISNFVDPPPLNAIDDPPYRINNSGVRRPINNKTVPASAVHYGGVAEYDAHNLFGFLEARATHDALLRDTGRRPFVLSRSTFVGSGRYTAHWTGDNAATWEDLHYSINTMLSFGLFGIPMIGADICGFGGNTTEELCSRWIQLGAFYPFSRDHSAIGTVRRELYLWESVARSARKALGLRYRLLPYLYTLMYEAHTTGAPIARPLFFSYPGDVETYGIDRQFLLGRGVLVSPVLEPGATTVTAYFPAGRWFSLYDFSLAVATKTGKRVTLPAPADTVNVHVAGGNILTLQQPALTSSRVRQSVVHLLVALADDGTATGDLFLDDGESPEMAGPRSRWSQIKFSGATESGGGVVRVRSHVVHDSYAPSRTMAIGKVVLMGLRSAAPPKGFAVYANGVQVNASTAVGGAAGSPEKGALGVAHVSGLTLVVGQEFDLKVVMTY
Procedure: as §1, §2

[2] = system: N-acetyl-β-D-glucosaminidase; assay: Glycosidase inhibition: N-acetyl-β-D-glucosaminidase; type: biochemical, Bovine; settings: 1 mg/ml
Procedure: as §1, §2

α-L-fucosidase = target: T2, α-L-fucosidase (Bos taurus, UniProt Q2KIM0); assay: Glycosidase inhibition: α-L-fucosidase; type: biochemical, Bovine; settings: 1 mg/ml
T2 construct: purchased Sigma
T2 sequence (Q2KIM0 23-468): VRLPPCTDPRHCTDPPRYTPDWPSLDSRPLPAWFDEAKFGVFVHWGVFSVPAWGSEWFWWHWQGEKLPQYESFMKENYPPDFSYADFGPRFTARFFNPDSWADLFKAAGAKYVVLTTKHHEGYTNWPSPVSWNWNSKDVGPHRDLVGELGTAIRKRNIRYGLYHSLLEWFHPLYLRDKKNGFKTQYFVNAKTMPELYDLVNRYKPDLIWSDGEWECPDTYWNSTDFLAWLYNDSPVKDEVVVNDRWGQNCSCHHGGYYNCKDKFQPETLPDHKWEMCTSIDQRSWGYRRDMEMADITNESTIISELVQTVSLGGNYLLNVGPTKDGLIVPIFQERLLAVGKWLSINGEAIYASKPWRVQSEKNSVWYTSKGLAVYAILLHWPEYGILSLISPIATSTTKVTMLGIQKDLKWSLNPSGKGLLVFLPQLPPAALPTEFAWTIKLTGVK
Procedure: as §1, §2

β-D-glucosidase = assay: Glycosidase inhibition: β-D-glucosidase, almond; type: biochemical, Almonds (Prunus sp.); settings: 1 mg/ml
Procedure: as §1, §2

B16-F10 tumour cells = assay: Control of lung metastasis in mice (B16-F10); type: in vivo, C57/bl6 mice; settings: 50 mg/kg s/c on days 2 and 4; lungs on day 14
Procedure: Mice (C57/bl6 under i/p ketamine anaesthesia) were challenged i/v (tail vein) with 5×10^4 B16-F10 tumour cells in a final volume of 100 μl per mouse on day 0. Test compounds (50 mg/kg in 200 μl sterile non-pyrogenic saline) were administered sic (right flank) on days 2 and 4. On day 14 the mice were sacrifices and the lungs dissected and stained in Indian ink solution (150 ml bidistilled water, 30 ml India Ink, 4 drops NH4OH) for 10 minutes then fixed for at least 24 hr in Fakete's solution (90 ml 37% formaldehyde, 900 ml 70% EtOH and 45 ml glacial acetic acid). The metastases in the stained and fixed lungs could then be visualized, counted and photographed.

α-D-glucosidase [3] = assay: Glycosidase inhibition: α-D-glucosidase, Bacillus; type: biochemical, Bacillus stearothermophilus; settings: 1 mg/ml
Procedure: as §1, §2

α-D-galactosidase = target: T3, α-D-galactosidase (Coffea arabica, UniProt Q42656); assay: Glycosidase inhibition: α-D-galactosidase; type: biochemical, Green coffee beans (Coffea sp.)
T3 construct: purchased Sigma
T3 sequence (Q42656 16-378): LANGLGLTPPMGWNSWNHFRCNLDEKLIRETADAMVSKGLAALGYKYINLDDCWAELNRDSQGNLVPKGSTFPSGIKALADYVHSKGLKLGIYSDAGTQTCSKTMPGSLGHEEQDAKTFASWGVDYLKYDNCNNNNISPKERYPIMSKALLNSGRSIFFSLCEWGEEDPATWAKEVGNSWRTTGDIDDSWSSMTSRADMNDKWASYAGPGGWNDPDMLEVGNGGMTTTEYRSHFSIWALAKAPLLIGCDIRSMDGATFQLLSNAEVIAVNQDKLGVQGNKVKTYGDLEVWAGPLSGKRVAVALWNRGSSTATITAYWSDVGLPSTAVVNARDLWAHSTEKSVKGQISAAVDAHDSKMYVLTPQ
Procedure: as §1, §2

β-D-galactosidase = assay: Glycosidase inhibition: β-D-galactosidase; type: biochemical, Bovine; settings: 1 mg/ml
Procedure: as §1, §2

α-D-glucosidase [4] = target: T4, α-D-glucosidase (Saccharomyces cerevisiae, UniProt P53341); assay: Glycosidase inhibition (p-nitrophenyl substrate): α-D-glucosidase, yeast; type: biochemical, Saccharomyces cerevisiae (Baker's yeast); settings: 1 mg/ml; read-out: % inhibition, α-gluc (yeast)
T4 construct: purchased Sigma
T4 sequence (P53341 whole entry): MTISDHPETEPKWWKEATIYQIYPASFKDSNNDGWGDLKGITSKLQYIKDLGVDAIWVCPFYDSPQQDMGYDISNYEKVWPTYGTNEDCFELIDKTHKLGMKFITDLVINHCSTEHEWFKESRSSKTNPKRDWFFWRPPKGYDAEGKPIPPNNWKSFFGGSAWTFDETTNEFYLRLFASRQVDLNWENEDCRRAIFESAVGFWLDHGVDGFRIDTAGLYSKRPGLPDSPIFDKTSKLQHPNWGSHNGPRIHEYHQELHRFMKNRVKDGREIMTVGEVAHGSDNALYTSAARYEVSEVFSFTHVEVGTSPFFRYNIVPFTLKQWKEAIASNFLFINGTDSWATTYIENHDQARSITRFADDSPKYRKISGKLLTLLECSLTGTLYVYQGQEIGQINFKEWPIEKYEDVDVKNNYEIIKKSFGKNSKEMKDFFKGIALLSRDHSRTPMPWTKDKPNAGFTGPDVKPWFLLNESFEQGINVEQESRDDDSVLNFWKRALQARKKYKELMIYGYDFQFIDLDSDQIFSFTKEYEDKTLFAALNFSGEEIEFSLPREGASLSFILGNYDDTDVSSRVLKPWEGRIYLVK
Procedure: as §1, §2

α-D-mannosidase = target: T5, α-D-mannosidase (Canavalia ensiformis, UniProt C0HJB3); assay: Glycosidase inhibition: α-D-mannosidase; type: biochemical, Jack beans (Canavalia ensiformis)
T5 construct: purchased Sigma
T5 sequence (C0HJB3 whole entry): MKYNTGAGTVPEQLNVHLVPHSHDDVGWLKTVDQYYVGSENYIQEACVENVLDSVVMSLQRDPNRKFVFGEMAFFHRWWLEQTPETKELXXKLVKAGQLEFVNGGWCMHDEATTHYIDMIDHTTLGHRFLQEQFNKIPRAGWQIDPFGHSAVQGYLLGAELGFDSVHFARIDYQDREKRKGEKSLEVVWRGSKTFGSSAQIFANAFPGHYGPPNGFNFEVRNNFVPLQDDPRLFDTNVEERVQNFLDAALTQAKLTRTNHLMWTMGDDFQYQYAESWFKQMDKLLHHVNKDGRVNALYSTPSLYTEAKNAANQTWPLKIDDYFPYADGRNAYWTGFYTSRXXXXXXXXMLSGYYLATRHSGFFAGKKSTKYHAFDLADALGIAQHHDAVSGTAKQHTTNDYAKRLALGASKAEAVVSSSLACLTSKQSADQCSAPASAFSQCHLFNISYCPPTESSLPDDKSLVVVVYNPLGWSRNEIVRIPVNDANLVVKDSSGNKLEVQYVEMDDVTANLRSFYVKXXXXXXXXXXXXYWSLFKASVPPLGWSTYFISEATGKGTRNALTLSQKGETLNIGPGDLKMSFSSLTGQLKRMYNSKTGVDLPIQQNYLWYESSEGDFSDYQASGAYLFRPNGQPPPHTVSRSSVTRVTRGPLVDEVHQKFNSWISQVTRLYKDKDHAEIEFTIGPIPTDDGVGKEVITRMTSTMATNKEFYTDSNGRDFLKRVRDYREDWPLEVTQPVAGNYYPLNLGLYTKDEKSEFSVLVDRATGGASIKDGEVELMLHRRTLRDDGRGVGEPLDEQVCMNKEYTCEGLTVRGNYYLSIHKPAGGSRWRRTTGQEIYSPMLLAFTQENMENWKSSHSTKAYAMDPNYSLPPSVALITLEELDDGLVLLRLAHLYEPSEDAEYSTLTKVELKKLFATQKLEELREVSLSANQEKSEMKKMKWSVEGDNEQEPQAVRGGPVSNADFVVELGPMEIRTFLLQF
Procedure: All enzymes were purchased from Sigma, as were the appropriate p-nitrophenyl substrates. Assays were carried out in microtitre plates. Enzymes were assayed in 0.1M citric acid/0.2M di-sodium hydrogen phosphate (McIlvaine) buffers at the optimum pH for the enzyme. All assays were carried out at 20° C.
Endpoint absorbances were read at 405 nm with a Biorad microtitre plate reader (Benchmark). Water was substituted for the inhibitors in the blanks.

B16G/F10 melanoma cells = assay: B16/F10 melanoma lung colonies in mice; type: in vivo, C57BL/6 mice
Procedure: There were 5 treatment groups in the study, with 6 mice arbitrarily allocated to each group. The treatment groups were as follows:
The dose volume was the daily intake for all animals. Test substances were administered to mice in Groups 2, 3, 4 and 5, as solutions in sterile water for 41 h 32 min prior to tumour cell injection (Day 0 is the day of tumour cell injection).
Mice were injected intravenously, via a tail vein, with 0.1 ml of a suspension of B16G/F10 melanoma cells (approximately 1×10^5 cells/mouse) on Day 0.
All dosing solutions were prepared on the first day of dosing (Day −2) and were kept at room temperature.
Mice: Female C57BL/6 mice were supplied and delivered by Charles River UK Limited. The animals were approximately 6-8 weeks of age on arrival. The animals were acclimatized for 29 days prior to the start of the study, and the body weights at the start of dosing were in the range 18-23 g. During the study, the animals were housed in groups of up to 6 in pediatric filter-topped cages with sawdust bedding (autoclaved for sterility). The room and cages were cleaned at regular intervals each week to maintain hygiene. The mice were fed an expanded rodent diet of RM1(E) SQC (batch number 3822; Special Diets Services, Witham, UK) ad libitum and allowed access to sterilized water (N.V. Nutricia, Zoetermeer, The Netherlands). For Groups 2, 3, 4 and 5, the drinking water also contained the appropriate level of test substance for the duration of the dosing period. […] During the acclimatization and study period the temperature range in the rooms was 18-22° C. and the humidity range was 44-79%.
Tumour challenge: B18F10 murine tumour cells (Shrayer D, Bogaars H. Hearing V. J. Maizel A. & Wanebo H. Further characterization of a clinically relevant model of melanoma metastasis and an effective vaccine. Cancer Immunology, Immunotherapy 1995: 40; 277-282) were harvested from sub-confluent cultures growing in vitro, using minimum trypsination. They were washed in sterile phosphate buffered saline (PBS) and the number of viable cells determined. Cells were resuspended in sterile PBS at a concentration of […]. The mice were intravenously injected, via a tail vein, with 0.1 ml of cell suspension (i.e. approximately 1×10^5 cells/mouse) on Day 0. The mice were examined daily for signs of laboured breathing or distress due to extensive metastatic disease. Mice were exposed to the appropriate test substance for 41 h 32 min prior to tumour cell injection (from Day −2 to Day 0). Following tumour cell implant, the test substances were removed, and animals in all groups received drinking water alone for the remainder of the study.
Sampling and analysis: The animals were terminated on Day 21 (21 days after injection of the tumour cells). Blood samples were taken from 3 mice from each group on the day of termination. Animals were anaesthetized with carbon dioxide and blood samples of maximal volume taken by cardiac puncture and collected in plain tubes. Samples were left to clot at room temperature for a minimum of 1 h prior to serum removal, Serum samples were stored at approximately −70° C. prior to analysis. Immediately after performing the bleeds, the spleens were removed from the 3 selected mice. The spleens from these mice were pooled in a petri dish with approximately 3-5 ml of RPMI 1640 tissue culture medium (batch number 3092202; Invitrogen, Paisley, UK) containing 0.52% penicillin/streptomycin (Pen/Strep; batch number 44K2412; Sigma Aldrich, Poole, UK) prior to splenocyte isolation. The spleens from each group were placed in a glass homogeniser with an additional 10-15 ml of medium and homogenised until opaque. The suspension was then placed in a 50 ml centrifuge tube. On occasions when there was significant cell debris, this was allowed to settle before removing the suspension and placing in a fresh tube. The homogenate was then centrifuged at approximately 200×‘g’ for 5 min at approximately 4° C.

dendritic cells = assay: Induction of IL-12 secretion in dendritic cells (ELISA); type: cell-based, BALB/c mice; settings: 50 μg/ml

Row | Structure (SMILES) | % inhibition, Naringinase (Naringinase) [%] | inhibition at 1000 µg/mL (α-D-glucosidase [1]; read-out: % inhibition, gluc (rice)) [%] | % inhibition, N-acetyl-β-gluc [2] [%] | inhibition at 1000 µg/mL (α-L-fucosidase; read-out: % inhibition, fucosidase) [%] | % inhibition, glucosidase (β-D-glucosidase) [%] | Metastatic morphology (B16-F10 tumour cells) | % inhibition, gluc (Bacillus) (α-D-glucosidase [3]) [%] | inhibition at 1000 µg/mL (α-D-galactosidase; read-out: % inhibition, galactosidase) [%] | inhibition at 1000 µg/mL (α-D-glucosidase [1]; read-out: % inhibition, α-gluc (rice)) [%] | % inhibition, β-galactosidase (β-D-galactosidase) [%] | inhibition at 1000 µg/mL (α-D-glucosidase [4]) [%] | inhibition at 1000 µg/mL (α-L-fucosidase; read-out: % inhibition, α-fucosidase) [%] | % inhibition, β-glucosidase (β-D-glucosidase) [%] | % inhibition, α-gluc (Bacillus) (α-D-glucosidase [3]) [%] | inhibition at 1000 µg/mL (α-D-galactosidase; 1 mg/ml, read-out: % inhibition, α-galactosidase) [%] | inhibition at 1000 µg/mL (α-D-mannosidase; read-out: % inhibition, α-mannosidase) [%] | Colony Count (B16G/F10 melanoma cells; 3 μg/ml in drinking water before tumour cell injection, Day 21, mean ± s.e.m.) | % Reduction (B16G/F10 melanoma cells; 3 μg/ml in drinking water, versus vehicle) [%] | induction of IL-12 secretion (dendritic cells) | inhibition at 1000 µg/mL (α-D-mannosidase; read-out: % inhibition, mannosidase) [%]
1 | OC[C@H]1[C@@H](O)[C@H](O)[C@H]2[C@H](O)[C@@H](O)CN21 [3-epi-casuarine (14), 3-epi-casuarine] | 21 | 13 | −1 | -2 | 56 | Metastasis restricted to apical tip of lung | 12 | 4 |  |  |  |  |  |  |  |  |  |  |  | 
2 | OCCN1[C@H](CO)[C@@H](O)[C@H](O)[C@H]1CO [N-hydroxyethyl DMDP, N-hydroxyethyl-2,5-dihydroxymethyl-3,4-dihydroxypyrrolidine] | 22 |  | 13 |  |  | Metastasis restricted to apical tip of lung |  |  | 43 | 73 | 56 | -4 | 64 | 85 | 7 | 11 |  |  |  | 
3 | O[C@H]1[C@H]2[C@H](O)CCCN2C[C@H]1O [Swainsonine (4), Swainsonine, reference compound] |  |  |  |  |  |  |  |  |  |  |  |  |  |  |  |  | 21.33 ± 4.11 | 69 | failed to induce IL-12 secretion | 74
